This note sets out measurements from patent US20250114374A1, “BCL-2 INHIBITORS” (Newave Pharmaceutical Inc., priority 2021, published 2025).

One experiment relates to RS4; 11 with G101V mutation. The experiment is described as follows: In vitro anti-proliferation assay (ATPlite luminescence) in BCL-2-dependent ALL cell line RS4;11 with G101V mutation. Type of experiment: cell-based. Particulars: Homo sapiens, RS4-11, 72 h; read-out: RS411-G101V IC50. The method, boiled down:
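IC50 came from luminescent ATP quantification (ATPlite) following cell lysis. Compound dose ranges were applied for roughly 72 h to about 1×10^4 G101V-mutant RS4;11 cells per well, in 10% FBS medium.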
Background: In ATP-based viability assays light output follows the ATP content of the culture.
With `COc1cc2c(nc1N1CCOC[C@@H]1C)COC[C@H]2N1CCN(C2CC3(CCN(c4ccc(C(=O)NS(=O)(=O)c5cc6c(c([N+](=O)[O-])c5)N[C@H](C5CCOCC5)CO6)c(N5c6cc7cc[nH]c7nc6O[C@H]6COCC[C@@H]65)c4)CC3)C2)[C@H](c2ccccc2OC(C)C)C1` [Example 232, 4-(2-((R)-2-(2-isopropoxyphenyl)-4-((S)-3-methoxy-2-((S)-3-methylmorpholino)-5,8-dihydro-6H-pyrano[3,4-b]pyridin-5-yl)piperazin-1-yl)-7-azaspiro[3.5]nonan-7-yl)-N-(((R)-5-nitro-3-(tetrahydro-2H-pyran-4-yl)-3,4-dihydro-2H-benzo[b][1,4]oxazin-7-yl)sulfonyl)-2-((5aS,9aR)-6,7,9,9a-tetrahydro-1H-pyrano[3,4-b]pyrrolo[3′,2′:5,6]pyrido[3,2-e][1,4]oxazin-5(5aH)-yl)benzamide], the IC50 (usually the concentration that gives 50% inhibition) came to 84.2 nM.

For the compound `Cc1ccccc1[C@@H]1CN([C@H]2CCCOC2)CCN1C1CC2(CCN(c3ccc(C(=O)NS(=O)(=O)c4cc5c(c([N+](=O)[O-])c4)N[C@H](C4CCOCC4)CO5)c(N4c5cc6cc[nH]c6nc5O[C@H]5COCC[C@@H]54)c3)CC2)C1` [Example 179, N—(((R)-5-nitro-3-(tetrahydro-2H-pyran-4-yl)-3,4-dihydro-2H-benzo[b][1,4]oxazin-7-yl)sulfonyl)-2-((5aS,9aR)-6,7,9,9a-tetrahydro-1H-pyrano[3,4-b]pyrrolo[3′,2′:5,6]pyrido[3,2-e][1,4]oxazin-5(5aH)-yl)-4-(2-((R)-4-((S)-tetrahydro-2H-pyran-3-yl)-2-(o-tolyl)piperazin-1-yl)-7-azaspiro[3.5]nonan-7-yl)benzamide], the IC50 was 31.2 nM.

The experiment is the same for the next values; noted with them: cellular anti-proliferative IC50, about 72 hours, medium with 10% FBS, ATPlite; read-out: RS411-G101V IC50.
Regarding `COc1cc(CN2CCN(C3CC4(CCN(c5ccc(C(=O)NS(=O)(=O)c6ccc(NCC7CCC(C)(O)CC7)c([N+](=O)[O-])c6)c(N6c7cc8cc[nH]c8nc7O[C@H]7COCC[C@@H]76)c5)CC4)C3)[C@@H](c3ccccc3OC(C)C)C2)cc2cc(C)oc12` (stereo partly drawn) [Example 129, N-((4-((((1r,4r)-4-hydroxy-4-methylcyclohexyl)methyl)amino)-3-nitrophenyl)sulfonyl)-4-(2-((S)-2-(2-isopropoxyphenyl)-4-((7-methoxy-2-methylbenzofuran-5-yl)methyl)piperazin-1-yl)-7-azaspiro[3.5]nonan-7-yl)-2-((5aS,9aR)-6,7,9,9a-tetrahydro-1H-pyrano[3,4-b]pyrrolo[3′,2′:5,6]pyrido[3,2-e][1,4]oxazin-5(5aH)-yl)benzamide], the IC50 was 33.9 nM.

Take `COc1cc(CN2CCN(C3CC4(CCN(c5ccc(C(=O)NS(=O)(=O)c6cc7c(c([N+](=O)[O-])c6)N[C@@H](C6CCC(C)(O)CC6)CO7)c(N6c7cc8cc[nH]c8nc7O[C@H]7COCC[C@@H]76)c5)CC4)C3)[C@@H](c3ccccc3OC(C)C)C2)cnc1N1CCOCC1` (stereo partly drawn) [Example 130, 2-[(3R,8S)-2,5-dioxa-9,15,17-triazatetracyclo[8.7.0.0^{3,8}.0^{12,16}]heptadeca-1(10),11,13,16-tetraen-9-yl]-4-{2-[(2S)-2-(2-isopropoxyphenyl)-4-{[5-methoxy-6-(morpholin-4-yl)pyridin-3-yl]methyl}piperazin-1-yl]-7-azaspiro[3.5]nonan-7-yl}-N-[(3S)-5-nitro-3-[(1r,4S)-4-hydroxy-4-methylcyclohexyl]-3,4-dihydro-2H-1,4-benzoxazin-7-ylsulfonyl]benzamide]: the IC50 came out at 13.1 nM.

Turning to `COc1cc(CN2CCN(C3CC4(CCN(c5ccc(C(=O)NS(=O)(=O)c6ccc(NCC7CCC(C)(O)CC7)c([N+](=O)[O-])c6)c(N6c7cc8cc[nH]c8nc7O[C@H]7COCC[C@@H]76)c5)CC4)C3)[C@@H](c3ccccc3OC(C)C)C2)cnc1C` (stereo partly drawn) [Example 135, 2-[(3R,8S)-2,5-dioxa-9,15,17-triazatetracyclo[8.7.0.0^{3,8}.0^{12,16}]heptadeca-1(10),11,13,16-tetraen-9-yl]-4-{2-[(2S)-2-(2-isopropoxyphenyl)-4-[(5-methoxy-6-methylpyridin-3-yl)methyl]piperazin-1-yl]-7-azaspiro[3.5]nonan-7-yl}-N-[3-nitro-4-({[(1r,4r)-4-hydroxy-4-methylcyclohexyl]methyl}amino)benzenesulfonyl]benzamide], the IC50 was 11.2 nM.

For `CNc1ccc(CN2CCN(C3CC4(CCN(c5ccc(C(=O)NS(=O)(=O)c6cc7c(c([N+](=O)[O-])c6)N[C@H](C6CCOCC6)CO7)c(N6c7cc8cc[nH]c8nc7O[C@H]7COCC[C@@H]76)c5)CC4)C3)[C@H](c3ccccc3OC(C)C)C2)cn1` [Example 259, 2-[(3R,8S)-2,5-dioxa-9,15,17-triazatetracyclo[8.7.0.0^{3,8}.0^{12,16}]heptadeca-1(10),11,13,16-tetraen-9-yl]-4-{2-[(2R)-2-(2-isopropoxyphenyl)-4-{[6-(methylamino)pyridin-3-yl]methyl}piperazin-1-yl]-7-azaspiro[3.5]nonan-7-yl}-N-[(3R)-5-nitro-3-(oxan-4-yl)-3,4-dihydro-2H-1,4-benzoxazin-7-ylsulfonyl]benzamide], the IC50 was found to be 9.72 nM.

In the case of `Cc1ccccc1[C@@H]1CN([C@H]2CCOc3c2ccc(F)c3F)CCN1C1CC2(CCN(c3ccc(C(=O)NS(=O)(=O)c4cc5c(c([N+](=O)[O-])c4)N[C@H](C4CCOCC4)CO5)c(N4c5cc6cc[nH]c6nc5O[C@H]5COCC[C@@H]54)c3)CC2)C1` [Example 196, 4-{2-[(2R)-4-[(4S)-7,8-difluoro-3,4-dihydro-2H-1-benzopyran-4-yl]-2-(2-methylphenyl)piperazin-1-yl]-7-azaspiro[3.5]nonan-7-yl}-2-[(3R,8S)-2,5-dioxa-9,15,17-triazatetracyclo[8.7.0.0^{3,8}.0^{12,16}]heptadeca-1(10),11,13,16-tetraen-9-yl]-N-[(3R)-5-nitro-3-(oxan-4-yl)-3,4-dihydro-2H-1,4-benzoxazin-7-ylsulfonyl]benzamide], the half-maximal inhibitory concentration (IC50) was found to be 92.3 nM.

Consider `CC(C)Oc1ccccc1[C@@H]1CN(Cc2ccc(F)c(F)c2)CCN1C1CC2(CCN(c3nc(N4c5cc6cc[nH]c6nc5O[C@H]5COCC[C@@H]54)c(C(=O)NS(=O)(=O)c4cc5c(c([N+](=O)[O-])c4)N[C@H](C4CCOCC4)CO5)cc3F)CC2)C1` [Example 234, 6-{2-[(2R)-4-[(3,4-difluorophenyl)methyl]-2-(2-isopropoxyphenyl)piperazin-1-yl]-7-azaspiro[3.5]nonan-7-yl}-2-[(3R,8S)-2,5-dioxa-9,15,17-triazatetracyclo[8.7.0.0^{3,8}.0^{12,16}]heptadeca-1(10),11,13,16-tetraen-9-yl]-5-fluoro-N-[(3R)-5-nitro-3-(oxan-4-yl)-3,4-dihydro-2H-1,4-benzoxazin-7-ylsulfonyl]pyridine-3-carboxamide], for which the IC50 is 181 nM.

In the case of `Cc1ccccc1[C@@H]1CN(Cc2cnc(N3CCOCC3)c3c2C(C)(C)CCO3)CCN1C1CC2(CCN(c3ccc(C(=O)NS(=O)(=O)c4cc5c(c([N+](=O)[O-])c4)N[C@H](C4CCOCC4)CO5)c(N4c5cc6cc[nH]c6nc5O[C@H]5COCC[C@@H]54)c3)CC2)C1` [Example 192, 4-{2-[(2R)-4-{[4,4-dimethyl-8-(morpholin-4-yl)-2H,3H-pyrano[2,3-c]pyridin-5-yl]methyl}-2-(2-methylphenyl)piperazin-1-yl]-7-azaspiro[3.5]nonan-7-yl}-2-[(3R,8S)-2,5-dioxa-9,15,17-triazatetracyclo[8.7.0.0^{3,8}.0^{12,16}]heptadeca-1(10),11,13,16-tetraen-9-yl]-N-[(3R)-5-nitro-3-(oxan-4-yl)-3,4-dihydro-2H-1,4-benzoxazin-7-ylsulfonyl]benzamide], the IC50 stood at 2.41 nM.

For the compound `COc1cc(CN2CCN(C3CC4(CCN(c5ccc(C(=O)NS(=O)(=O)c6ccc(NCC7CCC(C)(O)CC7)c([N+](=O)[O-])c6)c(N6c7cc8c(F)c[nH]c8nc7O[C@H]7COCC[C@@H]76)c5)CC4)C3)[C@@H](c3ccccc3OC(C)C)C2)cnc1N1CCOCC1` (stereo partly drawn) [Example 122, 2-[(3R,8S)-13-fluoro-2,5-dioxa-9,15,17-triazatetracyclo[8.7.0.0^{3,8}.0^{12,16}]heptadeca-1(10),11,13,16-tetraen-9-yl]-4-{2-[(2S)-2-(2-isopropoxyphenyl)-4-{[5-methoxy-6-(morpholin-4-yl)pyridin-3-yl]methyl}piperazin-1-yl]-7-azaspiro[3.5]nonan-7-yl}-N-[3-nitro-4-({[(1r,4r)-4-hydroxy-4-methylcyclohexyl]methyl}amino)benzenesulfonyl]benzamide], the IC50 is 10 nM.

For `COc1cc(CN2CCN(C3CC4(CCN(c5ccc(C(=O)NS(=O)(=O)c6ccc(NC[C@H]7CC[C@](C)(O)CC7)c([N+](=O)[O-])c6)c(N6c7cc8cc[nH]c8nc7O[C@H]7COCC[C@@H]76)c5)CC4)C3)[C@@H](c3ccccc3OC(C)C)C2)ccc1C1CC1` [Example 157, 4-(2-((S)-4-(4-cyclopropyl-3-methoxybenzyl)-2-(2-isopropoxyphenyl)piperazin-1-yl)-7-azaspiro[3.5]nonan-7-yl)-N-((4-((((1r,4r)-4-hydroxy-4-methylcyclohexyl)methyl)amino)-3-nitrophenyl)sulfonyl)-2-((5aS,9aR)-6,7,9,9a-tetrahydro-1H-pyrano[3,4-b]pyrrolo[3′,2′:5,6]pyrido[3,2-e][1,4]oxazin-5(5aH)-yl)benzamide], the IC50 was determined as 31.8 nM.

Consider `Cc1ccccc1[C@@H]1CN(Cc2cnc(N3CCOCC3)c(OC(C)C)c2)CCN1C1CC2(CCN(c3ccc(C(=O)NS(=O)(=O)c4ccc(NCC5CCC(C)(O)CC5)c([N+](=O)[O-])c4)c(N4c5cc6cc[nH]c6nc5O[C@H]5COCC[C@@H]54)c3)CC2)C1` (stereo partly drawn) [Example 145, 2-[(3R,8S)-2,5-dioxa-9,15,17-triazatetracyclo[8.7.0.0^{3,8}.0^{12,16}]heptadeca-1(10),11,13,16-tetraen-9-yl]-4-{2-[(2R)-4-{[5-isopropoxy-6-(morpholin-4-yl)pyridin-3-yl]methyl}-2-(2-methylphenyl)piperazin-1-yl]-7-azaspiro[3.5]nonan-7-yl}-N-[3-nitro-4-({[(1r,4r)-4-hydroxy-4-methylcyclohexyl]methyl}amino)benzenesulfonyl]benzamide], for which the IC50 amounted to 6.1 nM.
